One assay deals with 9L gliosarcoma tumors. As to the kind of experiment: Ki-67 immunohistochemistry of 9L tumor sections. The class given is in vivo, rat. Particulars: chronic treatment with HET0016. The protocol: Assessment of tumor volume: The formalin fixed brains were placed in Coronal rat brain matrix, and sliced into 3-mm blocks. These blocks were then embedded in paraffin and […] thick sections were prepared. Sections prepared for H&E staining were placed onto uncoated slides. Sections for immunohistochemistry were placed onto positively charged super frosted slides. The serial sections were either stained with H&E for to assess the size of the tumor or immunohistochemically process for Ki-67 antigen to assess for the degree of proliferation.
The sections prepared for immunohistochemistry were deparaffinized by boiling the sections in a citric buffer (pH 6.0) for 10 minutes on a hot plate. The sections were cooled to room temperature, placed in a blocking buffer [2% normal serum, 1% BSA in PBS] for 1 hr, rinsed twice in a wash buffer [0.05 Tween-20 in PBS], blocked with hydrogen peroxide for 10 min and rinsed in wash buffer. The sections were then incubated for 30 min with rabbit polyclonal anti-ki67 antibody (Abcam Inc., Cambridge, Mass.; 1:200 dilution in 1.0% BSA in PBS). The sections were rinsed in wash buffer, incubated with biotinylated Goat anti-rabbit IgG (Vector Laboratories, Inc., Burlingame, Calif.; 1:500 in PBS) for 30 min, and rewashed. […]

The next assay deals with VEGF. As to the kind of experiment: Western blot of VEGF protein expression in TA muscle. The assay is classed as in vivo, rat. The protocol:
Western blot analysis to detect the presence of VEGF protein: The 100-mg TA muscle specimens were homogenized, and the protein was suspended in potassium buffer (10 mM). Five micrograms of protein (as determined by a protein assay kit, Bio-Rad; Hercules, Calif.) from the TA and a tumor cell line known to express VEGF at high levels (C6, American Type Culture Collection, 107-CCL) were separated on a 12% denaturing polyacrylamide gel. The gels were transferred to a nitrocellulose membrane, which was blocked overnight in 5% nonfat dry milk diluted in Tris-buffered saline (50 mM Tris and 750 mM NaCl, pH 8) with 0.08% Tween 20 (Bio-Rad). The blots were then incubated with a […] antibody to a peptide derived from the human VEGF sequence (1:1,000 dilution, clone G143-850, Pharmingen) for 2 h at room temperature. Washed blots were then incubated with goat anti-mouse secondary antibody at a dilution of 1:1,000 for 1 h at room temperature and then subjected to a SuperSignal West Dura chemiluminescence substrate (Pierce; Rockford, Ill.) detection system. Membranes were exposed to X-ray film (Fuji Medical; Stamford, Conn.) for 15 to 30 s and developed using a Kodak M35 X-Omat processor. For the quantitative VEGF analysis, film was always exposed for a period of time that ensured that all signals were within the linear range of the detection of the film. The VEGF band intensity was quantified using a morphometry imaging system (Metamorph, Universal Imaging; West Chester, Pa.), and values are expressed as a percentage of the C6 tumor cell standard.
In general terms: Immunoblotting shows a protein as a band on a membrane.

Assay [1] relates to primary human keratinocytes. As to the kind of experiment: Proliferation of primary human keratinocytes (comparison with U251). The class given is cell-based. The following applies: 10 μM HET0016, 48 hrs; DDMS concentration not given. The protocol: Mean values±SD from three separate experiments, each performed in triplicate, are presented. *** indicates p<0.001 from the respective control values.
Cell Proliferation Assays: Proliferation studies were performed with cultures plated at a density that ensured exponential growth for at least 5 days. Growth medium was generally replaced by serum-free medium 24 hr after plating. Cells were treated with various concentrations of a given compounds for 24 or 48 hr as described in the Methods. […] Organic solvent never exceeded 0.1% of total culture volume. Cells were harvested by exposure to 0.05% trypsin/EDTA and counted using a hemocytometer.

Assay [2] deals with U251 human glioma cells spheroids. As to the kind of experiment: U251 spheroid-induced angiogenesis in the rat cornea pocket. The assay is classed as in vivo. The following applies: 20 μg HET0016 pellet. The protocol:
(iii) U251 human glioma cells spheroids: U251 human glioma cells were generously provided by Dr. Stephen Brown (Dept. of Radiation Oncology, Henry Ford Health System, Detroit, Mich.). The cells were maintained in DMEM (Invitrogen) supplemented with 10% heat-inactivated fetal bovine serum, penicillin (10 IU/ml), streptomycin (10 μg/ml) and 10% non-essential amino acids and grown at 37° C. in a humidified incubator containing 5% CO2. U251 spheroids were obtained by a modification of the method of Carlsson and Yuhas (Carlsson J and Yuhas J M, Recent Results Cancer Res 1984, 95:1-23). […] Spheroid diameter was measured using a dissection microscope equipped with a ruler. […]
(iv) Quantitation of corneal neovascularization: Seven days after pellet implantation, the rats were deeply anesthetized as previously described with ketamine and xylazine. […]
Neovascularization was determined by comparing total vessel length in the control and experimental eyes. Vessel length was determined by tracing each vessel from the limbus to the pellet. Total length is the sum of these values in pixels and was determined using conventional image analysis software (Sigma Scan Pro, SPSS, Chicago, Ill.)
For these experiments, we used the human glioblastoma cancer cell line U251, known to be angiogenic (Hsu S C et al., Cancer Res 1996, 56:5684-91). […] Angiogenic responses were assessed 14 days after implantation of the spheroids.

“Also recorded” adds a separate entry of the source.

One compound from patent US20050124618A1, “Methods of modulating angiogenesis and cancer cell proliferation” (priority 2003, published 2005) can be followed below.

As for `CCCCc1ccc(N=CNO)c(C)c1` [HET0016, N-hydroxy-N′-(4-butyl-2 methylphenyl) formamidine], the “number of mitotic (Ki67-positive) cells in the 9L tumor” value in the assay on 9L gliosarcoma tumors is “reduction in mitosis; also recorded: greatly reduced the number of mitotic cells”. Besides, in the assay with VEGF (7 days stimulation), the “effect on increases in VEGF protein expression induced by electrical stimulation” value is “did not block”. In addition, in the assay on VEGF (7 days treatment), the “effect on baseline VEGF expression” value is given as “Neither HET0016 nor ABT had any effect”. Also, in assay [1], the “effect on basal growth or proliferation of primary human keratinocytes” value was “Neither DDMS or HET0016 had any effect; also recorded: had no effect on the basal growth or proliferation; also recorded: had no effect on the proliferation”. For the same compound, the “effect on corneal neovascularization induced by U251 spheroids” value in assay [2] (2 weeks) is recorded as “significantly inhibited; also recorded: decreases angiogenesis”. Besides, the “decrease of angiogenic responses to U251 spheroids” value in assay [2] (14 days after implantation) was “approximately 70%”.
